Reference: patent publication US7189702B2, “Glucopyranosyloxypyrazole derivatives and medicinal use thereof” (Kissei Pharmaceutical Co., Ltd., priority 2001, dated 2007)

How the values were obtained:
[1] = target: T1, human SGLT2 (Homo sapiens, UniProt P31639, I433V); assay: Assay for inhibitory effect on human SGLT2 activity (uptake of methyl-α-D-glucopyranoside); format: cell-based; conditions: for IC50: inhibition of methyl-α-D-(U-14C)glucopyranoside uptake, COS-7 cells expressing transiently human SGLT2, 37° C., 2 hours
T1 construct: expressed in transfected cells; host or cells: COS-7 cells (RIKEN CELL BANK RCB0539), transient, electroporation of KL29
T1 sequence (P31639 1-672 I433V): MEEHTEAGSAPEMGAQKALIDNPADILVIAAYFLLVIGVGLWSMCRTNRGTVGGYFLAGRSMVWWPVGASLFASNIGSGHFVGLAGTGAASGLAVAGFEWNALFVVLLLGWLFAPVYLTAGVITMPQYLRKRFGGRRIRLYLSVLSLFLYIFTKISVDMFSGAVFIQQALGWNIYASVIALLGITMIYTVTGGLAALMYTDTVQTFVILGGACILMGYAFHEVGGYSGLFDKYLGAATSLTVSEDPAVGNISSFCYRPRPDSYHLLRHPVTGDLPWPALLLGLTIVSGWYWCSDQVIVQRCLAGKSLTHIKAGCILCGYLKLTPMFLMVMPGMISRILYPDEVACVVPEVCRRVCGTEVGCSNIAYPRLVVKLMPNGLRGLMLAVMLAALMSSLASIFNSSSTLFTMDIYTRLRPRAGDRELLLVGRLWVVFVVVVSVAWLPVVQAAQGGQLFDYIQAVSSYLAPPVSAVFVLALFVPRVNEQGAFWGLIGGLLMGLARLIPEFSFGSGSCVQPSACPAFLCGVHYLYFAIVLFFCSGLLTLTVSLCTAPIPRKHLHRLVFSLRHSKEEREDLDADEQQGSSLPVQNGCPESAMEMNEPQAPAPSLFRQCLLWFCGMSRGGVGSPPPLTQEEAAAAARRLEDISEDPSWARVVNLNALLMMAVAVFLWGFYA
Protocol: Assay for Inhibitory Effect on Human SGLT2 Activity
1) Construction of the Plasmid Vector Expressing Human SGLT2
Preparation of the cDNA library for PCR amplification was performed by reverse transcription of a total RNA deprived from human kidney (Ori gene) with oligo dT as the primer, using SUPERSCRIPT Preamplification System (Gibco-BRL: LIFE TECHNOLOGIES). The DNA fragment coding for human SGLT2 was amplified by the PCR reaction, in which the human kidney cDNA library described above was used as the template and the following oligo nucleotides 0702F and 0712R, presented as Sequence Numbers 1 and 2 respectively, were used as the primers. The amplified DNA fragment was ligated into pCR-Blunt (Invitrogen), a vector for cloning, according to standard method of the kit. The Escherichia coli HB101 was transformed according to usual method and then selection of the transformants was performed on the LB agar medium containing 50 μg/mL of kanamycin. After plasmid DNA was extracted and purified from the one of the transformants, amplifying of the DNA fragment coding for human SGLT2 was performed by the PCR reaction, in which the following oligo nucleotides 0714F and 0715R, presented as Sequence Numbers 3 and 4 respectively, were used as the primers. The amplified DNA fragment was digested with restriction enzymes, Xho I and Hind III, and then purified with Wizard Purification System (Promega). This purified DNA fragment was inserted at the corresponding restriction sites of pcDNA3.1 (−) Myc/His-B (Invitrogen), a vector for expressing of fusion protein. The Escherichia coli HB101 was transformed according to usual method and then selection of the transformant was performed on the LB agar medium containing 100 μg/mL of ampicillin. After plasmid DNA was extracted and purified from this transformant, the base sequence of the DNA fragment inserted at the multi-cloning sites of the vector pcDNA3.1 (−) Myc/His-B was analyzed. […] Sequentially, a clone in which valine is substituted for isoleucine-433 was obtained. This plasmid vector expressing human SGLT2 in which the peptide presented as Sequence Number 5 is fused to the carboxyl terminal alanine residue was designated KL29.
2) Preparation of the Cells Expressing Transiently Human SGLT2
KL29, the plasmid coding human SGLT2, was transfected into COS-7 cells (RIKEN CELL BANK RCB0539) by electroporation. Electroporation was performed with GENE PULSER II (Bio-Rad Laboratories) under the condition: 0.290 kV, 975 μF, 2×10^6 cells of COS-7 cell and 20 μg of KL29 in 500 μL of OPTI-MEM I medium (Gibco-BRL: LIFE TECHNOLOGIES) in the 0.4 cm type cuvette. After the gene transfer, the cells were harvested by centrifugation and resuspended with OPTI-MEM I medium (1 mL/cuvette). To each well in 96-wells plate, 125 μL of this cell suspension was added. After overnight culture at 37° C. under 5% CO2, 125 μL of DMEM medium which is containing 10% of fetal bovine serum (Sanko Jyunyaku), 100 units/mL sodium penicillin G (Gibco-BRL: LIFE TECHNOLOGIES), and 100 μg/mL streptomycin sulfate (Gibco-BRL: LIFE TECHNOLOGIES) was added to each well. These cells were cultured until the next day and then they were used for the measurement of the inhibitory activity against the uptake of methyl-α-D-glucopyranoside.
3) Measurement of the Inhibitory Activity Against the Uptake of methyl-α-D-glucopyranoside
After a test compound was dissolved in dimethyl sulfoxide and diluted with the uptake buffer (a pH 7.4 buffer containing 140 mM sodium chloride, 2 mM potassium chloride, 1 mM calcium chloride, 1 mM magnesium chloride, 5 mM methyl-α-D-glucopyranoside, 10 mM 2-[4-(2-hydroxyethyl)-1-piperazinyl]ethane sulfonic acid and 5 mM tris(hydroxymethyl)aminomethane), each diluent was used as test sample for measurement of the inhibitory activity. […]

[2] = normal mice; J. Med. Chem., Vol. 39, pp. 3920–3928 (1996); cited from earlier work

Structure (SMILES) | IC50 [1] [µM] | inhibitory activity in human SGLT2 ([1]; statement in words) | amount of excreted glucose [2]
Cc1c(Cc2ccc(C3CC3)cc2)c(O[C@@H]2O[C@H](CO)[C@@H](O)[C@H](O)[C@H]2O)nn1CC1CC1 [Example 32, 3-(β-D-Glucopyranosyloxy)-5-methyl-1-(cyclopropylmethyl)-4-[(4-cyclopropylphenyl)methyl]-1H-pyrazole] | 0.026 | – | –
Cc1[nH]nc(O[C@@H]2O[C@H](CO)[C@@H](O)[C@H](O)[C@H]2O)c1Cc1ccc(-c2ccc(F)cc2)cc1 [Example 26, 4-{[4-(4-Fluorophenyl)phenyl]methyl}-3-(β-D-glucopyranosyloxy)-5-methyl-1H-pyrazole] | 0.15 | – | –
CSc1ccc(Cc2c(C(F)(F)F)[nH][nH]c2=O)cc1 [WAY-123783, reference compound] | > 100 | extremely weak | increased
CSc1ccc(Cc2c(O[C@@H]3O[C@H](CO)[C@@H](O)[C@H](O)[C@H]3O)nn(CC3CC3)c2C)cc1 [Example 38, 1-(Cyclopropylmethyl)-3-(β-D-glucopyranosyloxy)-5-methyl-4-[(4-methylthiophenyl)methyl]-1H-pyrazole] | 0.045 | – | –
Cc1[nH]nc(O[C@@H]2O[C@H](CO)[C@@H](O)[C@H](O)[C@H]2O)c1Cc1ccc(OC2CCC2)cc1 [Example 27, 4-{[4-(Cyclobutyloxy)phenyl]methyl}-3-(β-D-glucopyranosyloxy)-5-methyl-1H-pyrazole] | 0.21 | – | –
Cc1[nH]nc(O[C@@H]2O[C@H](CO)[C@@H](O)[C@H](O)[C@H]2O)c1Cc1ccc(-c2nccs2)cc1 [Example 23, 3-(β-D-Glucopyranosyloxy)-5-methyl-4-{[4-(thiazol-2-yl)phenyl]methyl}-1H-pyrazole] | 0.046 | – | –
Cc1[nH]nc(O[C@@H]2O[C@H](CO)[C@@H](O)[C@H](O)[C@H]2O)c1Cc1ccc(C=C2CC2)cc1 [Example 20, 3-(β-D-Glucopyranosyloxy)-5-methyl-4-{[4-(cyclopropylidenemethyl)phenyl]methyl}-1H-pyrazole] | 0.015 | – | –

The next lines start with results.

IC50 [1] [µM] | Structure (SMILES) | inhibitory activity in human SGLT2 ([1]; statement in words) | amount of excreted glucose [2]
0.065 | CC(C)=Cc1ccc(Cc2c(O[C@@H]3O[C@H](CO)[C@@H](O)[C@H](O)[C@H]3O)n[nH]c2C)cc1 [Example 25, 3-(β-D-Glucopyranosyloxy)-5-methyl-4-{[4-(2-methylprop-1-en-1-yl)phenyl]methyl}-1H-pyrazole] | – | –
0.041 | CC/C=C/c1ccc(Cc2c(O[C@@H]3O[C@H](CO)[C@@H](O)[C@H](O)[C@H]3O)n[nH]c2C)cc1 [Example 22, (E)-4-{[4-(But-1-en-1-yl)phenyl]methyl}-3-(β-D-glucopyranosyloxy)-5-methyl-1H-pyrazole] | – | –
0.057 | OCCCc1ccc(Cc2c(O[C@@H]3O[C@H](CO)[C@@H](O)[C@H](O)[C@H]3O)n[nH]c2C(F)(F)F)cc1 [Example 24, 3-(β-D-Glucopyranosyloxy)-4-{[4-(3-hydroxypropyl)phenyl]methyl}-5-trifluoromethyl-1H-pyrazole] | – | –
0.018 | Cc1[nH]nc(O[C@@H]2O[C@H](CO)[C@@H](O)[C@H](O)[C@H]2O)c1Cc1ccc(C2CC2)cc1 [Example 21, 3-(β-D-Glucopyranosyloxy)-5-methyl-4-[(4-cyclopropylphenyl)methyl]-1H-pyrazole] | – | –
0.047 | CCc1ccc(Cc2c(O[C@@H]3O[C@H](CO)[C@@H](O)[C@H](O)[C@H]3O)nn(CCCO)c2C)cc1 [Example 39, 4-[(4-Ethylphenyl)methyl]-3-(β-D-glucopyranosyloxy)-1-(3-hydroxypropyl)-5-methyl-1H-pyrazole] | – | –
